Data from US6482806B1, “Product of heat treatment of uronic acid, food, drink, or drug including the product” (Takara Shuzo Co., Ltd., priority 1996, dated 2002).
*1 amine or outer side, *2 acyl side, *3 side chain or, on linkers, in order; H or OH if unused. Where a SMILES comes first, the peptide text is derived from it. Bridges are numbered along the chain shown (N, C = ends). Roman numbers before positions name the chains, in order. [ ]: non-standard residue; d: D form. Actinocin(9to1) = Cc1c2oc3c(C)ccc(C(=O)[*:1])c3nc-2c(C(=O)[*:2])c(N)c1=O; NMeV = CN[C@H](C(=O)O)C(C)C; Sar = CNCC(=O)O

Experiments:
[1] = test system: human promyelocytic leukemia cells (HL-60) (ATCC CCL-240); test: Apoptosis-inducing activity to HL-60 cells, microscope and trypan blue count (method of Example 7); type: cell-based; conditions: 0.05 ml of aqueous solution (0.1 mg/ml) added, 16 hours
Experimental: Thus, HL-60 (ATCC CCL-240) were incubated in an RPMI 1640 medium (manufactured by Nissui) containing 10% of fetal calf serum (manufactured by Gibco) treated at 56° C. for 30 minutes and then suspended in an RPMI 1640 medium to make the cell concentration 2.5×10^5 cells/4.5 ml.
To 4.5 ml of this suspension was added 0.5 ml of the above-mentioned heat-treated pectin solution and the mixture was incubated at 37° C. for 16 hours in the presence of 5% of carbon dioxide. For the sake of confirmation, the same incubation as above was conducted except that 0.05 ml of an aqueous solution (0.1 mg/ml) of actinomycin D (manufactured by Sigma) which was known as an apoptosis-inducing reagent and 0.45 ml of a physiological saline solution were used instead of the above-mentioned heat-treated pectin solution.
Incidentally, in the control where the cells to which 0.5 ml of a physiological saline solution was added were incubated, such phenomena were not observed.
Further, to the cell suspension was added twice as much by volume of a 0.4% aqueous solution of trypan blue and an observation was conducted under an optical microscope whereby trypan blue was excreted and colorless cells and blue-colored cells were counted as viable and dead cells, respectively.

[2] = test system: Human promyelocytic leukemia cells HL-60 (ATCC CRL-1964); test: Apoptosis induction in HL-60 cells, optical microscope (Example 1); type: cell-based; conditions: 0.1 ml of aqueous solution (0.1 mg/ml) added, 16 hours
Experimental: Human promyelocytic leukemia cells HL-60 (ATCC CRL-1964) were incubated in an RPMI 1640 medium (manufactured by Nissui) containing 10% of fetal calf serum (manufactured by Gibco) treated at 56° C. for 30 minutes and then suspended in an ASF 104 medium (manufactured by Ajinomoto) to make the cell concentration 5×10^5cells/9 ml.
To this suspension was added 1 ml of the heat-treated pectin solution and the mixture was incubated at 37° C. for 16 hours in the presence of 5% of carbon dioxide. For the sake of confirmation, the same incubation as above was conducted except that 0.1 ml of aqueous solution (0.1 mg/ml) of actinomycin D (manufactured by Sigma) which was known as an apoptosis-inducing reagent and 0.9 ml of a physiological saline solution were used instead of the above-mentioned pectin solution.
Incidentally, in the control where the cells to which 1 ml of physiological saline solution was added were incubated, such phenomena were not observed.

Cc1c2oc3c(C)ccc(C(=O)N[C@@H]4C(=O)N[C@H](C(C)C)C(=O)N5CCC[C@H]5C(=O)N(C)CC(=O)N(C)[C@@H](C(C)C)C(=O)O[C@@H]4C)c3nc-2c(C(=O)N[C@@H]2C(=O)N[C@H](C(C)C)C(=O)N3CCC[C@H]3C(=O)N(C)CC(=O)N(C)[C@@H](C(C)C)C(=O)O[C@@H]2C)c(N)c1=O [actinomycin D] (I: T[dV]P[Sar][NMeV] / II: T[dV]P[Sar][NMeV]; ester I:1-I:C, II:1-II:C; linker I:N-II:N via Actinocin(9to1)) was tested, and the “condensation of nuclei, contraction of cells and production of apoptotic body” value [1] was “condensation of nuclei, contraction of cells and production of apoptotic body were confirmed” and the “condensation of nuclei, contraction of cells and production of apoptotic body” value [2] was “condensation of nuclei, contraction of cells and production of apoptotic body were confirmed”.
